Like-named read-outs stand apart in the source and are kept apart here.

The subject of one assay is wildtype Wnt pathway. Put plainly: HEK293 TOP reporter assay, wildtype Wnt pathway stimulated with Wnt-3a. In kind it is cell-based, human. Conditions: Homo sapiens, HEK293, 16 h; read-out: HEK TOP OncoFlash IC50. On the procedure: (§1) Measurement of luciferase expression was done as described for the constitutive active Wnt assay.
In order to discover and characterize small molecules which inhibit the wildtype Wnt pathway, a cellular reporter assay was employed. […] Stable transfectants were generated by selection with 300 μg/ml Hygromycin.
Background: A reporter such as luciferase makes a cellular process visible.

Assay [1] relates to HEK293 FOP control reporter cell line. Put plainly: HEK293 FOP control reporter assay. It is filed as cell-based, human. Conditions: read-out: HEK FOP IC50. On the procedure:
as §1
In a parallel approach, HEK293 cells were cotransfected with the FOP control vector and pcDNA3. The FOP vector is identical to the TOP construct, but it contains instead of functional TCF elements a randomized, non-functional sequence. For this transfection a stable transfected cell line was generated as well, based on selection with Geneticin (1 mg/ml).

The test system of assay [2] is constitutive active colorectal cancer cell (CRC) Wnt pathway. Put plainly: HCT116 TOPFlash cellular reporter assay (Super TopFlash luciferase), constitutive active Wnt pathway. Conditions: HCT116 TOP reporter cells, 36 hours incubation, luciferase expression. It is filed as cell-based. On the procedure: In order to discover and characterize small molecules which inhibit the constitutive active colorectal cancer cell (CRC) Wnt pathway, a cellular reporter assay was employed. […] Stable transfectants were generated by cotransfection with pcDNA3 and selection of stable transfected cells with 1 mg/ml G418.

Assay [3] deals with HCT116 FOP control reporter cell line. As to the kind of experiment: HCT116 FOPFlash control reporter assay (FOP control vector, non-functional TCF elements). As to conditions: HCT116 FOP control reporter cells, 36 hours incubation, luciferase expression. In kind it is cell-based. The text has this:
In a parallel approach, HCT116 cells were cotransfected with the FOP control vector and pcDNA3. The FOP vector is identical to the TOP construct, but it contains instead of functional TCF elements a randomized, non-functional sequence. For this transfection a stable transfected cell line was generated as well.

Setting [4] is: HEK293 FOP control cells, EC50 concentration of recombinant Wnt-3a, 16 hours.

For orientation: IC50 means the concentration that inhibits the measured activity by half. Take `O=C(CN1CCOCC1)Nc1cc(NC(=O)c2ccc(-c3ccccc3)s2)ccc1OC(F)(F)F` [Example 17, N-{3-[(morpholin-4-ylacetyl)amino]-4-(trifluoromethoxy)phenyl}-5-phenylthiophene-2-carboxamide]: the IC50 with wildtype Wnt pathway was 0.033 µM; in assay [1] (Homo sapiens, HEK293, 16 h), at least 50 µM; in assay [2] (Homo sapiens, HCT-116, 36 h) it was 0.043 µM; in assay [3] (Homo sapiens, HCT-116, 36 h) it was at least 50 µM.

As for `CC(C(=O)Nc1cc(C(=O)Nc2nnc(-c3ccccc3)s2)ccc1OC(F)(F)F)N1CCOCC1` (stereo not drawn) [Example 57, 3-{[2-(morpholin-4-yl)propanoyl]amino}-N-(5-phenyl-1,3,4-thiadiazol-2-yl)-4-(trifluoromethoxy)benzamide], the IC50 in assay [1] (Homo sapiens, HEK293, 16 h) was at least 50 µM; in assay [3], at least 50 µM.

On to `CN1CCN(CC(=O)Nc2cc(C(=O)Nc3nnc(-c4ccccc4)s3)ccc2OC(F)F)CC1` [Example 40, 4-(difluoromethoxy)-3-{[(4-methylpiperazin-1-yl)acetyl]amino}-N-(5-phenyl-1,3,4-thiadiazol-2-yl)benzamide], for which the IC50 in the assay on wildtype Wnt pathway was 0.53 µM; in assay [1] (Homo sapiens, HEK293, 16 h), at least 50 µM; in assay [2] (Homo sapiens, HCT-116, 36 h), 0.0524 µM; in assay [3] (Homo sapiens, HCT-116, 36 h), at least 50 µM.

As to `Nc1ccc(-c2ccc(NC(=O)c3ccc(OC(F)(F)F)c(NC(=O)CN4CCOCC4)c3)cn2)cc1` [Example 126, N-[6-(4-aminophenyl)pyridin-3-yl]-3-[(morpholin-4-ylacetyl)amino]-4-(trifluoromethoxy)benzamide], the IC50 in the assay with wildtype Wnt pathway is 0.036 µM; in assay [1] (Homo sapiens, HEK293, 16 h) it was at least 50 µM; in assay [2] (Homo sapiens, HCT-116, 36 h), 0.0525 µM; in assay [3] (Homo sapiens, HCT-116, 36 h), at least 50 µM.

For the compound `COc1ccc(NC(=O)c2ccc(-c3ccccc3F)nc2)cc1NC(=O)C1(N2CCOCC2)CC1` [Example 62, 6-(2-fluorophenyl)-N-[4-methoxy-3-({[1-(morpholin-4-yl)cyclopropyl]carbonyl}amino)phenyl]nicotinamide], the IC50 was 0.18 µM with wildtype Wnt pathway; at least 50 µM in assay [1] (Homo sapiens, HEK293, 16 h); 0.0673 µM in assay [2] (Homo sapiens, HCT-116, 36 h); at least 50 µM in assay [3] (Homo sapiens, HCT-116, 36 h).

For `COCc1ccc(C(=O)Nc2nnc(-c3ccccc3)s2)cc1NC(=O)CN1CCN(C)CC1` [Example 46, 4-(methoxymethyl)-3-{[(4-methylpiperazin-1-yl)acetyl]amino}-N-(5-phenyl-1,3,4-thiadiazol-2-yl)benzamide], the IC50 in the assay with wildtype Wnt pathway is 0.69 µM; in assay [1] (Homo sapiens, HEK293, 16 h) it was at least 50 µM; in assay [2] (Homo sapiens, HCT-116, 36 h), 0.164 µM; in assay [3] (Homo sapiens, HCT-116, 36 h), at least 50 µM.

For the compound `COC(=O)c1ccc(C(=O)Nc2nnc(-c3ccccc3)s2)cc1NC(=O)CN1CCN(C)CC1` [Example 105, methyl 2-{[(4-methylpiperazin-1-yl)acetyl]amino}-4-[(5-phenyl-1,3,4-thiadiazol-2-yl)carbamoyl]benzoate], the IC50 in the assay with wildtype Wnt pathway was 0.3 µM; in assay [1] (Homo sapiens, HEK293, 16 h), at least 50 µM; in assay [2] (Homo sapiens, HCT-116, 36 h), 0.064 µM; in assay [3] (Homo sapiens, HCT-116, 36 h), at least 50 µM.

As to `NC(=O)c1ccc(C(=O)Nc2nnc(-c3ccccc3)s2)cc1NC(=O)C1(N2CCOCC2)CC1` [Example 56, 2-({[1-(morpholin-4-yl)cyclopropyl]carbonyl}amino)-N-4-(5-phenyl-1,3,4-thiadiazol-2-yl)terephthalamide], the IC50 in the assay with wildtype Wnt pathway was 0.19 µM; in assay [1] (Homo sapiens, HEK293, 16 h), at least 50 µM; in assay [2] (Homo sapiens, HCT-116, 36 h) it was 0.104 µM; in assay [3] (Homo sapiens, HCT-116, 36 h), at least 50 µM.

For `COCc1ccc(C(=O)Nc2nnc(-c3ccccc3)s2)cc1NC(=O)C1(N2CCOCC2)CC1` [Example 43, 4-(methoxymethyl)-3-({[1-(morpholin-4-yl)cyclopropyl]carbonyl}amino)-N-(5-phenyl-1,3,4-thiadiazol-2-yl)benzamide], the IC50 with wildtype Wnt pathway was 0.11 µM; in assay [1] (Homo sapiens, HEK293, 16 h), at least 50 µM; in assay [2] (Homo sapiens, HCT-116, 36 h) it was 0.0491 µM; in assay [3] (Homo sapiens, HCT-116, 36 h), at least 50 µM.

With `O=C(Nc1nnc(-c2ccccc2)s1)c1ccc(OC(F)(F)F)c(NC(=O)C2(N3CCN(C4CC4)CC3)CC2)c1` [Example 51, 3-({[1-(4-cyclopropylpiperazin-1-yl)cyclopropyl]carbonyl}amino)-N-(5-phenyl-1,3,4-thiadiazol-2-yl)-4-(trifluoromethoxy)benzamide], the IC50 in assay [1] (Homo sapiens, HEK293, 16 h) was at least 50 µM.

With `O=C(Nc1nnc(-c2ccccc2)s1)c1ccc(OC(F)(F)F)c(NC(=O)C2(N3CCOCC3)CC2)c1` [Example 50, 3-({[1-(morpholin-4-yl)cyclopropyl]carbonyl}amino)-N-(5-phenyl-1,3,4-thiadiazol-2-yl)-4-(trifluoromethoxy)benzamide], the IC50 in assay [1] (Homo sapiens, HEK293, 16 h) was at least 50 µM.

For the compound `C[C@@H](C(=O)Nc1cc(C(=O)Nc2ccc(-c3ccccc3F)nc2)ccc1OC(F)(F)F)N1CCN(C)CC1` (single isomer, unassigned) [Example 65, N-[6-(2-fluorophenyl)pyridin-3-yl]-3-{[(2S)-2-(4-methylpiperazin-1-yl)propanoyl]amino}-4-(trifluoromethoxy)benzamide or N-[6-(2-fluorophenyl)pyridin-3-yl]-3-{[(2R)-2-(4-methylpiperazin-1-yl)propanoyl]amino}-4-(trifluoromethoxy)benzamide], the IC50 in assay [1] (setting [4]) and in assay [3] was at least 50 µM throughout.

As to `O=C(Nc1ccc(-c2ccccc2F)nc1)c1ccc(OC(F)(F)F)c(NC(=O)C2(N3CCOCC3)CC2)c1` [Example 68, N-[6-(2-fluorophenyl)pyridin-3-yl]-3-({[1-(morpholin-4-yl)cyclopropyl]carbonyl}amino)-4-(trifluoromethoxy)benzamide], the IC50 in assay [1] (Homo sapiens, HEK293, 16 h) was at least 50 µM.

Turning to `NC(=O)c1ccc(C(=O)Nc2ccc(-c3ccccc3F)nc2)cc1NC(=O)C1(N2CCOCC2)CC1` [Example 75, N^4-[6-(2-fluorophenyl)pyridin-3-yl]-2-({[1-(morpholin-4-yl)cyclopropyl]carbonyl}amino)terephthalamide], the IC50 in assay [1] (Homo sapiens, HEK293, 16 h) is at least 50 µM.

As to `CC(C(=O)Nc1cc(C(=O)Nc2ccc(-c3ccc(N)cc3)nc2)ccc1OC(F)(F)F)N1CCOCC1` (stereo not drawn) [Example 111, N-[6-(4-aminophenyl)pyridin-3-yl]-3-{[2-(morpholin-4-yl)propanoyl]amino}-4-(trifluoromethoxy)benzamide], the IC50 in assay [1] (Homo sapiens, HEK293, 16 h) is at least 50 µM.

On to `COc1ccc(NC(=O)c2ncc(-c3ccccc3)o2)cc1NC(=O)CN1CCOCC1` [Example 20, N-{4-methoxy-3-[(morpholin-4-ylacetyl)amino]phenyl}-5-phenyl-1,3-oxazole-2-carboxamide], for which the 50% inhibitory concentration (IC50) in assay [1] (Homo sapiens, HEK293, 16 h) is at least 50 µM.

For the compound `O=C(Nc1ccc(-c2ccccc2F)nc1)c1ccc(OC2CC2)c(NC(=O)C2(N3CCN(C4CC4)CC3)CC2)c1` [Example 136, 4-(cyclopropyloxy)-3-({[1-(4-cyclopropylpiperazin-1-yl)cyclopropyl]carbonyl}amino)-N-[6-(2-fluorophenyl)pyridin-3-yl]benzamide], the IC50 in assay [1] (Homo sapiens, HEK293, 16 h) is at least 50 µM.

Take `O=C(CN1CCN(C2CC2)CC1)Nc1cc(C(=O)Nc2nnc(-c3ccccc3)s2)ccc1OC(F)F` [Example 41, 3-{[(4-cyclopropylpiperazin-1-yl)acetyl]amino}-4-(difluoromethoxy)-N-(5-phenyl-1,3,4-thiadiazol-2-yl)benzamide]: the IC50 in assay [1] (Homo sapiens, HEK293, 16 h) was at least 50 µM.

For “N-[6-(2-fluorophenyl)pyridin-3-yl]-3-{[(2S)-2-(4-methylpiperazin-1-yl)propanoyl]amino}-4-(trifluoromethoxy)benzamide or N-[6-(2-fluorophenyl)pyridin-3-yl]-3-{[(2R)-2-(4-methylpiperazin-1-yl)propanoyl]amino}-4-(trifluoromethoxy)benzamide [Example 66]”, the results for the IC50 in assay [1] (setting [4]), in assay [2] and in assay [3] were at least 50 µM, 0.011 µM and at least 50 µM, respectively.

With `O=C(Nc1ccc(-c2ccccc2)cn1)c1ccc(OC(F)(F)F)c(NC(=O)C2(N3CCOCC3)CC2)c1` [Example 95, 3-({[1-(morpholin-4-yl)cyclopropyl]carbonyl}amino)-N-(5-phenylpyridin-2-yl)-4-(trifluoromethoxy)benzamide], the IC50 in assay [1] (Homo sapiens, HEK293, 16 h) was at least 50 µM.

As to `CN1CCN(C2(C(=O)Nc3cc(C(=O)Nc4nnc(-c5ccccc5)s4)ccc3CS(C)(=O)=O)CC2)CC1` [Example 49, 3-({[1-(4-methylpiperazin-1-yl)cyclopropyl]carbonyl}amino)-4-[(methylsulfonyl)methyl]-N-(5-phenyl-1,3,4-thiadiazol-2-yl)benzamide], in assay [1] (Homo sapiens, HEK293, 16 h), the IC50 was at least 50 µM.

Consider `O=C(Nc1ccc(-c2cc(F)cc(F)c2)nc1)c1ccc(OC(F)(F)F)c(NC(=O)C2(N3CCOCC3)CC2)c1` [Example 71, N-[6-(3,5-difluorophenyl)pyridin-3-yl]-3-({[1-(morpholin-4-yl)cyclopropyl]carbonyl}amino)-4-(trifluoromethoxy)benzamide], for which the IC50 in assay [1] (Homo sapiens, HEK293, 16 h) was at least 50 µM.

Take `O=C(Nc1nnc(-c2ccccc2)s1)c1ccc(OC(F)F)c(NC(=O)C2(N3CCN(C4CC4)CC3)CC2)c1` [Example 38, 3-({[1-(4-cyclopropylpiperazin-1-yl)cyclopropyl]carbonyl}amino)-4-(difluoromethoxy)-N-(5-phenyl-1,3,4-thiadiazol-2-yl)benzamide]: the IC50 in assay [1] (Homo sapiens, HEK293, 16 h) is at least 50 µM.

For the origin of these results see patent publication US10130633B2, “Compounds” (BAYER PHARMA AKTIENGESELLSCHAFT, priority 2013, dated 2018).
